Assays:
Experiment in all cases: KINOMEscan
Assay type in all cases: binding
[1] = biological target: T1, CDK2 (Homo sapiens, UniProt P24941)
T1 construct: purchased Eurofins DiscoverX, LLC; host or cells: E. coli BL21-derived (T7 phage) or HEK-293

[2] = biological target: T2, VEGFR2 (Homo sapiens, UniProt P35968)
T2 construct: purchased Eurofins DiscoverX, LLC; host or cells: E. coli BL21-derived host (T7 phage) or HEK-293

[3] = biological target: T3, AKT2 (Homo sapiens, UniProt P31751)
T3 construct: purchased Eurofins DiscoverX, LLC; host or cells: E. coli BL21-derived (T7 phage) or HEK-293
T3 sequence (P31751 whole entry): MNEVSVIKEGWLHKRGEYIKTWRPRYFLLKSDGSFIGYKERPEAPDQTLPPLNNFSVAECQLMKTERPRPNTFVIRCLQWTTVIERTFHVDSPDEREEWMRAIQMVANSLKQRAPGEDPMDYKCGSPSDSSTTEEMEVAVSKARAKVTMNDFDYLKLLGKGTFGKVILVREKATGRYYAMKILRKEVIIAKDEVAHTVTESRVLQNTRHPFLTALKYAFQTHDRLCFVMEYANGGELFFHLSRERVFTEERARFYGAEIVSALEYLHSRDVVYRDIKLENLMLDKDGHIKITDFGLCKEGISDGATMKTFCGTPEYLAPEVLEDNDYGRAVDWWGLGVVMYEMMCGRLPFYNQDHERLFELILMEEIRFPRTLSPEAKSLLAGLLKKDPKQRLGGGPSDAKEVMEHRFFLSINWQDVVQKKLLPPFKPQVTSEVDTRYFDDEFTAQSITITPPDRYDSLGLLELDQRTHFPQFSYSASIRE

[4] = biological target: T4, KIT (Homo sapiens, UniProt P10721)
T4 construct: purchased Eurofins DiscoverX, LLC; host or cells: E. coli (BL21-derived, T7 phage) or HEK-293

[5] = biological target: T5, RET (Homo sapiens, UniProt P07949)
T5 construct: purchased Eurofins DiscoverX, LLC; host or cells: E. coli BL21-derived host (T7 phage) or HEK-293

[6] = biological target: T6, RAF1 (Homo sapiens, UniProt P04049)
T6 construct: purchased Eurofins DiscoverX, LLC; host or cells: E. coli BL21-derived host (T7 phage) or HEK-293
T6 sequence (P04049 whole entry): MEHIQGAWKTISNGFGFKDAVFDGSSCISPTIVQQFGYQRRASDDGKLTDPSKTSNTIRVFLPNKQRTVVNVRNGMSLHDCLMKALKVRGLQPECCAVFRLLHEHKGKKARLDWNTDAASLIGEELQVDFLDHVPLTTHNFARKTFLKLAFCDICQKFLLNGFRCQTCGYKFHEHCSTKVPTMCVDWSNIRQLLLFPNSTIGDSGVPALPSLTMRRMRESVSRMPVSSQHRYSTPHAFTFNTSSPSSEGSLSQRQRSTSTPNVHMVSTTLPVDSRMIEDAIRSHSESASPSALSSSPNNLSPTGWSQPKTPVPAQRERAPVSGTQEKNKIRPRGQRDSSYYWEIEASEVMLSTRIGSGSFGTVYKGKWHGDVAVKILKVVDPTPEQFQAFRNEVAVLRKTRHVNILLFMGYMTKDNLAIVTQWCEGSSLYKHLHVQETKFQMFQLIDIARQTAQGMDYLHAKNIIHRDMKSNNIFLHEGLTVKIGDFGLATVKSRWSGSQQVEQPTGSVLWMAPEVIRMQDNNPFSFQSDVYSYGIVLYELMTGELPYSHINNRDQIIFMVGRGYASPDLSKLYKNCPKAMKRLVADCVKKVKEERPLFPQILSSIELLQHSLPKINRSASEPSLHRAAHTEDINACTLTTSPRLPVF

[7] = biological target: T7, p38δ (Homo sapiens, UniProt O15264)
T7 construct: purchased Eurofins DiscoverX, LLC; host or cells: E. coli (BL21-derived, T7 phage) or HEK-293
T7 sequence (O15264 1-365): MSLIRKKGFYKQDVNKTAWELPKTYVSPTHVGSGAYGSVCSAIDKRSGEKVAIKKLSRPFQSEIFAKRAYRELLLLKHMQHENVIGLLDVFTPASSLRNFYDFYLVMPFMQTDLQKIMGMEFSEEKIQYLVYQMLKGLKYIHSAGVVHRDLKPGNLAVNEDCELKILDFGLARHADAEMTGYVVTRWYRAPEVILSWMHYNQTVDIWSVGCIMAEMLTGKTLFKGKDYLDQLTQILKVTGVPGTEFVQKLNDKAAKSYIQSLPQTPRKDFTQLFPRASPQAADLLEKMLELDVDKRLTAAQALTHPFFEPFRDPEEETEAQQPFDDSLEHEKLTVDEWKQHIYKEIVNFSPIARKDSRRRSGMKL

[8] = biological target: T8, BRAF (Homo sapiens, UniProt P15056)
T8 construct: purchased Eurofins DiscoverX, LLC; host or cells: E. coli BL21-derived (T7 phage) or HEK-293
T8 sequence (P15056 whole entry): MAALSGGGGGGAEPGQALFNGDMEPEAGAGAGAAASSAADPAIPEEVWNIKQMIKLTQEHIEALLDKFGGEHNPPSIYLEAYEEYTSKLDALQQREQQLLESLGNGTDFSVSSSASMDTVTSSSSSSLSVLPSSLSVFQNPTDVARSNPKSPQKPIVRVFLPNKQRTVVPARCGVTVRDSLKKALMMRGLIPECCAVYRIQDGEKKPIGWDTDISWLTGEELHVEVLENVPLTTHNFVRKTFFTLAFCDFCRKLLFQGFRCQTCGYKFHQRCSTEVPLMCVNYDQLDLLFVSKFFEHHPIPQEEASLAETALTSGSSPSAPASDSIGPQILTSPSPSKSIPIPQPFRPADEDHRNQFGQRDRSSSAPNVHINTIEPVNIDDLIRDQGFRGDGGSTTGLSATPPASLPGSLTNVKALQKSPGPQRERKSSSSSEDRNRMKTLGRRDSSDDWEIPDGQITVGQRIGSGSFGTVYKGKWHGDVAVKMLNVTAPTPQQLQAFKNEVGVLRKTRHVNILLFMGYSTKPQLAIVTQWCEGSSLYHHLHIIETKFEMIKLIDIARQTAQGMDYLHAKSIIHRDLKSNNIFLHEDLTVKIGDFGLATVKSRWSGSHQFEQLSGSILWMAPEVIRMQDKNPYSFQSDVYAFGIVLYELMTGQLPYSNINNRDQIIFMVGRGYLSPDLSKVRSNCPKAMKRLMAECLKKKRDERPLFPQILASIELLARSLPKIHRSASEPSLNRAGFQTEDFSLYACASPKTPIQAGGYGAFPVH

[9] = biological target: T9, ERBB4 (Homo sapiens, UniProt Q15303)
T9 construct: purchased Eurofins DiscoverX, LLC; host or cells: E. coli (T7 phage) or HEK-293

[10] = biological target: T10, JNK3 (Homo sapiens, UniProt P53779)
T10 construct: purchased Eurofins DiscoverX, LLC; host or cells: E. coli (BL21-derived, T7 phage) or HEK-293
T10 sequence (P53779 whole entry): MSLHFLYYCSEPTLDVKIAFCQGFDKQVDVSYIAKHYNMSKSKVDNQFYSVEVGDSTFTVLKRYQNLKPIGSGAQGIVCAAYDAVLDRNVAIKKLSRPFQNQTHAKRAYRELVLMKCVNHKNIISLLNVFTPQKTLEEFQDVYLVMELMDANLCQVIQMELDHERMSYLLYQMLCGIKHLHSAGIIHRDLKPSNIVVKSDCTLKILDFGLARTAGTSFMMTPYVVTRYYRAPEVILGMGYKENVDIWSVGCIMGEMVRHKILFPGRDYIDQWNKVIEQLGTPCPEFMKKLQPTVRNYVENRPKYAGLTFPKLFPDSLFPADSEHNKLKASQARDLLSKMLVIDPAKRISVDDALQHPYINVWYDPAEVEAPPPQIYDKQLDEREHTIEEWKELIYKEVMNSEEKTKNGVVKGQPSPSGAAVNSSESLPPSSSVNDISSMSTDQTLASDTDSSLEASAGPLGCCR

[11] = biological target: T11, MEK2 (Homo sapiens, UniProt P36507)
T11 construct: purchased Eurofins DiscoverX, LLC; host or cells: E. coli (BL21-derived, T7 phage) or HEK-293
T11 sequence (P36507 whole entry): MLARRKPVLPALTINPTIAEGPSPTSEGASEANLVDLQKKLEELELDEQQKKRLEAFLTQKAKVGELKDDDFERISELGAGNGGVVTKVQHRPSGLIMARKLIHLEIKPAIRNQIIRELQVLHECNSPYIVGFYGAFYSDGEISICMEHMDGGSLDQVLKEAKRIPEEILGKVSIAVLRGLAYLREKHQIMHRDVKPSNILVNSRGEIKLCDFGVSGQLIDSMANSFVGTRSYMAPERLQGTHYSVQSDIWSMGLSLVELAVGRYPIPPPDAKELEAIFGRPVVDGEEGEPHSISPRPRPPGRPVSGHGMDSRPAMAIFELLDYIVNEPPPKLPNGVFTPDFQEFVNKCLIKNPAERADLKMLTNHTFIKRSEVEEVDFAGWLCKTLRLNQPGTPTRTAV

[12] = biological target: T12, ABL1(T315I)-phosphorylated (Homo sapiens, UniProt P00519, T315I)
T12 construct: purchased Eurofins DiscoverX, LLC; host or cells: E. coli BL21-derived (T7 phage) or HEK-293

[13] = biological target: T13, PAK2 (Homo sapiens, UniProt Q13177)
T13 construct: purchased Eurofins DiscoverX, LLC; host or cells: E. coli (BL21-derived, T7 phage) or HEK-293
T13 sequence (Q13177 whole entry): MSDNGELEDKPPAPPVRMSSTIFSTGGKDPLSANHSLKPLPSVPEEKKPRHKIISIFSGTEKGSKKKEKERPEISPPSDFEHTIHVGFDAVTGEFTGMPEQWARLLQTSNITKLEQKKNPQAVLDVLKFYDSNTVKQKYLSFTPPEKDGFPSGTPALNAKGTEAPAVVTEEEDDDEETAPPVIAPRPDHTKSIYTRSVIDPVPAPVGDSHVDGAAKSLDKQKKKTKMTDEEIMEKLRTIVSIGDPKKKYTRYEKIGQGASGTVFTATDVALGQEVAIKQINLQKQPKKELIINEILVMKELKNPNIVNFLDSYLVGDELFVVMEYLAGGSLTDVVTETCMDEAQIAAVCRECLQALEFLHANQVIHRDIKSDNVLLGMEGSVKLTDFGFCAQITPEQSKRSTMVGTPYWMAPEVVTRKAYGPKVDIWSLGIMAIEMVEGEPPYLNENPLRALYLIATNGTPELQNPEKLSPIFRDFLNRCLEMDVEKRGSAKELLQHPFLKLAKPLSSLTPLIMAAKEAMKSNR

[14] = biological target: T14, JAK2(JH1domain-catalytic) (Homo sapiens, UniProt O60674)
T14 construct: JAK2(JH1domain-; purchased Eurofins DiscoverX, LLC; host or cells: E. coli (T7 phage) or HEK-293
T14 sequence (O60674 849-1124 limits assumed): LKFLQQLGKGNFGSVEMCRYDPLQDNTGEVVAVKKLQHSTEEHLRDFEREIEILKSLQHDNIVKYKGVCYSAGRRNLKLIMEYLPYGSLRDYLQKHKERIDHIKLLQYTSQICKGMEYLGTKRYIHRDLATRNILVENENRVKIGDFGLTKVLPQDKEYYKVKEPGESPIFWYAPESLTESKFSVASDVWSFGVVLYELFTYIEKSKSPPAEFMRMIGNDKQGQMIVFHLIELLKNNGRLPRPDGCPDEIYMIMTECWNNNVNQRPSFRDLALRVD

T2 sequence (P35968 20-1356): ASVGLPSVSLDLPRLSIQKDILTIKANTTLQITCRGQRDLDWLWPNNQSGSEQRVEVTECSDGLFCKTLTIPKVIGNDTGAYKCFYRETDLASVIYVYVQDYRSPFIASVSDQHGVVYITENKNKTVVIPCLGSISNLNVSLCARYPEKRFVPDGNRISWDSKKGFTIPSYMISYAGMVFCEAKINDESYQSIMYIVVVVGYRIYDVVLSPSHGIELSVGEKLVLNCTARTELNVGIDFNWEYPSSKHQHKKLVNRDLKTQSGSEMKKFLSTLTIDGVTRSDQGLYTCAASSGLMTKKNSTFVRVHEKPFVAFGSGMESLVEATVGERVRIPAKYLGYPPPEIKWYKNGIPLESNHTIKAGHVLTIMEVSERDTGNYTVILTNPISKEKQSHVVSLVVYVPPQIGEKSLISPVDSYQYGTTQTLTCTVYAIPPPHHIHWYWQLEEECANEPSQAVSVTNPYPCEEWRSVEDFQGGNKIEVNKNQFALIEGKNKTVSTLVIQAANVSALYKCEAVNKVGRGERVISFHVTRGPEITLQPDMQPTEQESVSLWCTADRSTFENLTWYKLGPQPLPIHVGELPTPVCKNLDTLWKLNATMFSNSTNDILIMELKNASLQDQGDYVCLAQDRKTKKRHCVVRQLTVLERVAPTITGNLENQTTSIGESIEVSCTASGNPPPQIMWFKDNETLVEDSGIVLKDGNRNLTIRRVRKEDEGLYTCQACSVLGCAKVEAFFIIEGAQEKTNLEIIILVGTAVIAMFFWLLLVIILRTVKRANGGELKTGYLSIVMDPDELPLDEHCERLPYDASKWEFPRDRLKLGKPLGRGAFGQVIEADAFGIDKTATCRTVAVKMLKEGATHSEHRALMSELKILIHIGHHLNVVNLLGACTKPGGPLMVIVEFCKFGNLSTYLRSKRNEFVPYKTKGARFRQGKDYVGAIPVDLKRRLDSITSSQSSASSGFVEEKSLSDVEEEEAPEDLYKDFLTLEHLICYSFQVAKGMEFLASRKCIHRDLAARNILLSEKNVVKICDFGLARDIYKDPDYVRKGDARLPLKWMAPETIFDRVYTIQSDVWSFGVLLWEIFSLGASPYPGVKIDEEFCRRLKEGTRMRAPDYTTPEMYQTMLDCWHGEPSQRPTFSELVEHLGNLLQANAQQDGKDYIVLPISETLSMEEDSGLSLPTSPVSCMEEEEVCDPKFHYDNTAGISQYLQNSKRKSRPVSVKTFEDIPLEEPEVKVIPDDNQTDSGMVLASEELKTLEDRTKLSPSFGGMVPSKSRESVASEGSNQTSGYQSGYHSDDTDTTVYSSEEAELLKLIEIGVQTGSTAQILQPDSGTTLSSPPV

| SMILES | RA @ 1000nM [1] [%] | RA @ 10000nM [1] [%] | RA @ 1000nM [2] [%] | RA @ 10000nM [2] [%] | RA @ 1000nM [3] [%] | RA @ 10000nM [3] [%] | RA @ 1000nM [4] [%] | RA @ 10000nM [4] [%] | RA @ 1000nM [5] [%] | RA @ 10000nM [5] [%] | RA @ 1000nM [6] [%] | RA @ 10000nM [6] [%] | RA @ 1000nM [7] [%] | RA @ 10000nM [7] [%] | RA @ 1000nM [8] [%] | RA @ 10000nM [8] [%] | RA @ 1000nM [9] [%] | RA @ 10000nM [9] [%] | RA @ 1000nM [10] [%] | RA @ 10000nM [10] [%] | further results |
| --- | --- | --- | --- | --- | --- | --- | --- | --- | --- | --- | --- | --- | --- | --- | --- | --- | --- | --- | --- | --- | --- |
| CC(C)Cn1ncc2cc(Cc3ccc(F)cc3F)c(C(=O)NCCN(C)C)cc21 [Compound 94, 5-(2,4-Difluorobenzyl)-N-(2-(dimethylamino)ethyl)-1-isobutyl-1H-indazole-6-carboxamide] | 82 | 97 | 100 | 100 | 89 | 76 | 100 | 100 | 100 | 100 | 100 | 100 | 97 | 100 | 100 | 100 | 85 | 83 | 55 | 6.8 | RA @ 1000nM [11]: 86%; RA @ 10000nM [11]: 80%; RA @ 1000nM [12]: 93%; RA @ 10000nM [12]: 90%; RA @ 1000nM [13]: 100%; RA @ 10000nM [13]: 97%; RA @ 1000nM [14]: 98%; RA @ 10000nM [14]: 100% |
| CN(C)CCNC(=O)c1cc2c(cnn2CC2CCCCC2)cc1Cc1ccc(F)cc1F [Compound 95, 1-(Cyclohexylmethyl)-5-(2,4-difluorobenzyl)-N-(2-(dimethylamino)ethyl)-1H-indazole-6-carboxamide] | 99 | 100 | 100 | 100 | 100 | 88 | 100 | 100 | 100 | 100 | 100 | 100 | 100 | 100 | 100 | 100 | 93 | 81 | 48 | 3.7 | RA @ 1000nM [11]: 95%; RA @ 10000nM [11]: 100%; RA @ 1000nM [12]: 72%; RA @ 10000nM [12]: 91%; RA @ 1000nM [13]: 100%; RA @ 10000nM [13]: 95%; RA @ 1000nM [14]: 100%; RA @ 10000nM [14]: 100% |
